Results from patent US11576979B2, “Pyrrolobenzodiazepine prodrugs and antibody conjugates thereof” (GENENTECH, INC., priority 2016, dated 2023).
Like-named read-outs stand apart in the source and are kept apart here.

Legend:
WSU-DLCL2 = experiment: CELLTITER GLO cell proliferation assay (Example 6); assay type: cell-based; details: data in parenthesis = repeat evaluations, read-out: IC50 potency WSU-DLCL2
Outline: (§1)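 Cells seeded at about 8000 (WSU-DLCL2) or 4000 (KPL-4) per well in RPMI-1640 with 10% FBS, 2 mM glutamine, 50 uM cystine and 0.015 g/L L-methionine; 10-point 1:3 dose-response in triplicate, cultured at 37° C., 5% CO2. Viability read by CellTiter-Glo luminescence, normalized to no-compound minus no-cell controls.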

KPL-4 = experiment: CELLTITER GLO cell proliferation assay (Example 6); assay type: cell-based; details: data in parenthesis = repeat evaluations, read-out: IC50 potency KPL-4
Outline: as §1

Work on `C=C1C[C@H]2C=Nc3cc(OC)c(OC)cc3C(=O)N2C1` [PBD monomer control 1, reference compound] yielded an IC50 (WSU-DLCL2; Homo sapiens, WSUDLCL2, Table 4) of 106 nM, an IC50 (WSU-DLCL2; Table 4) of 109 nM and an IC50 (KPL-4; KPL4, Table 4) of 330 nM. It also gave an IC50 (KPL-4; Table 4) of 241 nM.
